Data from ChEMBL document CHEMBL4507329, “Data for DCP probe BTZO-1” (2021).

Legend:
[1] = molecular target: D(1B) dopamine receptor (Homo sapiens) (UniProt P21918); conditions: Compound concentration 10.0 uM
[2] = molecular target: Phosphatidylinositol 3-kinase C2 domain-containing subunit gamma (Homo sapiens) (UniProt O75747); conditions: Compound concentration 1000.0 nM
[3] = molecular target: Mitogen-activated protein kinase 7 (Homo sapiens) (UniProt Q13164); conditions: Compound concentration 1000.0 nM
[4] = molecular target: Myosin light chain kinase 2, skeletal/cardiac muscle (Homo sapiens) (UniProt Q9H1R3); conditions: Compound concentration 1000.0 nM
[5] = tested on: Receptor-type tyrosine-protein kinase FLT3 (Homo sapiens), P36888 [D835V]; conditions: Compound concentration 1000.0 nM
[6] = molecular target: Cyclin-dependent kinase 16 (Homo sapiens) (UniProt Q00536); conditions: Compound concentration 1000.0 nM
[7] = molecular target: Dual specificity mitogen-activated protein kinase kinase 6 (Homo sapiens) (UniProt P52564); conditions: Compound concentration 1000.0 nM
[8] = molecular target: Dual specificity mitogen-activated protein kinase kinase 3 (Homo sapiens) (UniProt P46734); conditions: Compound concentration 1000.0 nM
[9] = molecular target: Serine/threonine-protein kinase RIO1 (Homo sapiens) (UniProt Q9BRS2); conditions: Compound concentration 1000.0 nM
[10] = molecular target: Serine/threonine-protein kinase 26 (Homo sapiens) (UniProt Q9P289); conditions: Compound concentration 1000.0 nM
[11] = molecular target: 5'-AMP-activated protein kinase catalytic subunit alpha-1 (Homo sapiens) (UniProt Q13131); conditions: Compound concentration 1000.0 nM
Chain of 5'-AMP-activated protein kinase catalytic subunit alpha-1 (Homo sapiens) (Q13131 whole entry, looked up): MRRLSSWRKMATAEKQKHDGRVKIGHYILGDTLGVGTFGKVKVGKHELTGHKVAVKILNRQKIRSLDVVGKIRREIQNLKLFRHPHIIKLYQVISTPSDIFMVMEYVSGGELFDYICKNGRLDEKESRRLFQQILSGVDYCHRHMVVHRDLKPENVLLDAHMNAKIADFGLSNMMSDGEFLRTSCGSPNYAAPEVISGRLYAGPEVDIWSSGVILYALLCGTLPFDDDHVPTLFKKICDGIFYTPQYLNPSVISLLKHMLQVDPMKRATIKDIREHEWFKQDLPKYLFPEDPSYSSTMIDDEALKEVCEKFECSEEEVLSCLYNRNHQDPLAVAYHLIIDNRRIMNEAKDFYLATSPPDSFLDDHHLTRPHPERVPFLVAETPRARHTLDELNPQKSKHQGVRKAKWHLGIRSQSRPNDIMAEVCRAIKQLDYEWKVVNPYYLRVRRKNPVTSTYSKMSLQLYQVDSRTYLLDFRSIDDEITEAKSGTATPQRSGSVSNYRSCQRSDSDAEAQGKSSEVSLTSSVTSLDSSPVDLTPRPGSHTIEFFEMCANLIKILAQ

[12] = molecular target: D(1A) dopamine receptor (Homo sapiens) (UniProt P21728); conditions: Compound concentration 10.0 uM
[13] = tested on: Epidermal growth factor receptor (Homo sapiens), P00533 [UNDEFINED MUTATION]; conditions: Compound concentration 1000.0 nM
[14] = molecular target: Serine/threonine-protein kinase SIK1 (Homo sapiens) (UniProt P57059); conditions: Compound concentration 1000.0 nM
[15] = molecular target: 5-hydroxytryptamine receptor 1B (Homo sapiens) (UniProt P28222); conditions: Compound concentration 10.0 uM
[16] = molecular target: Tyrosine-protein kinase JAK3 (Homo sapiens) (UniProt P52333); conditions: Compound concentration 1000.0 nM
[17] = molecular target: Serine/threonine-protein kinase 32A (Homo sapiens) (UniProt Q8WU08); conditions: Compound concentration 1000.0 nM
[18] = molecular target: Mast/stem cell growth factor receptor Kit (Homo sapiens) (UniProt P10721); conditions: Compound concentration 1000.0 nM
[19] = molecular target: Calcium/calmodulin-dependent protein kinase kinase 2 (Homo sapiens) (UniProt Q96RR4); conditions: Compound concentration 1000.0 nM
[20] = molecular target: Protein-tyrosine kinase 6 (Homo sapiens) (UniProt Q13882); conditions: Compound concentration 1000.0 nM
Chain of Protein-tyrosine kinase 6 (Homo sapiens) (Q13882 whole entry, looked up): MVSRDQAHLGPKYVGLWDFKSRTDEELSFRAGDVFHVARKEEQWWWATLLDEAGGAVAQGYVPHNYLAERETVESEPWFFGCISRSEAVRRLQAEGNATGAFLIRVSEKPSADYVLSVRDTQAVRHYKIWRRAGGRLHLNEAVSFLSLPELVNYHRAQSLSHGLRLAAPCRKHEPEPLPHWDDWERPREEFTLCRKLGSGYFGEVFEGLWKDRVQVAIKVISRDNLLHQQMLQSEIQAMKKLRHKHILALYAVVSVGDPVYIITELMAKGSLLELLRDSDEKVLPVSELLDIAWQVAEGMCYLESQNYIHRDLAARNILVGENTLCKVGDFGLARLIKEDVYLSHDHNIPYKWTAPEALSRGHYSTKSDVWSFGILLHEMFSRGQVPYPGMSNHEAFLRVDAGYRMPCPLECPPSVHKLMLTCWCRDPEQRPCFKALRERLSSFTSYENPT

[21] = tested on: Epidermal growth factor receptor (Homo sapiens), P00533 [G719S]; conditions: Compound concentration 1000.0 nM
[22] = molecular target: Histamine H3 receptor (Homo sapiens) (UniProt Q9Y5N1); conditions: Compound concentration 10.0 uM
[23] = molecular target: STE20/SPS1-related proline-alanine-rich protein kinase (Homo sapiens) (UniProt Q9UEW8); conditions: Compound concentration 1000.0 nM
[24] = molecular target: Vascular endothelial growth factor receptor 2 (Homo sapiens) (UniProt P35968); conditions: Compound concentration 1000.0 nM
Chain of Vascular endothelial growth factor receptor 2 (Homo sapiens) (P35968 whole entry): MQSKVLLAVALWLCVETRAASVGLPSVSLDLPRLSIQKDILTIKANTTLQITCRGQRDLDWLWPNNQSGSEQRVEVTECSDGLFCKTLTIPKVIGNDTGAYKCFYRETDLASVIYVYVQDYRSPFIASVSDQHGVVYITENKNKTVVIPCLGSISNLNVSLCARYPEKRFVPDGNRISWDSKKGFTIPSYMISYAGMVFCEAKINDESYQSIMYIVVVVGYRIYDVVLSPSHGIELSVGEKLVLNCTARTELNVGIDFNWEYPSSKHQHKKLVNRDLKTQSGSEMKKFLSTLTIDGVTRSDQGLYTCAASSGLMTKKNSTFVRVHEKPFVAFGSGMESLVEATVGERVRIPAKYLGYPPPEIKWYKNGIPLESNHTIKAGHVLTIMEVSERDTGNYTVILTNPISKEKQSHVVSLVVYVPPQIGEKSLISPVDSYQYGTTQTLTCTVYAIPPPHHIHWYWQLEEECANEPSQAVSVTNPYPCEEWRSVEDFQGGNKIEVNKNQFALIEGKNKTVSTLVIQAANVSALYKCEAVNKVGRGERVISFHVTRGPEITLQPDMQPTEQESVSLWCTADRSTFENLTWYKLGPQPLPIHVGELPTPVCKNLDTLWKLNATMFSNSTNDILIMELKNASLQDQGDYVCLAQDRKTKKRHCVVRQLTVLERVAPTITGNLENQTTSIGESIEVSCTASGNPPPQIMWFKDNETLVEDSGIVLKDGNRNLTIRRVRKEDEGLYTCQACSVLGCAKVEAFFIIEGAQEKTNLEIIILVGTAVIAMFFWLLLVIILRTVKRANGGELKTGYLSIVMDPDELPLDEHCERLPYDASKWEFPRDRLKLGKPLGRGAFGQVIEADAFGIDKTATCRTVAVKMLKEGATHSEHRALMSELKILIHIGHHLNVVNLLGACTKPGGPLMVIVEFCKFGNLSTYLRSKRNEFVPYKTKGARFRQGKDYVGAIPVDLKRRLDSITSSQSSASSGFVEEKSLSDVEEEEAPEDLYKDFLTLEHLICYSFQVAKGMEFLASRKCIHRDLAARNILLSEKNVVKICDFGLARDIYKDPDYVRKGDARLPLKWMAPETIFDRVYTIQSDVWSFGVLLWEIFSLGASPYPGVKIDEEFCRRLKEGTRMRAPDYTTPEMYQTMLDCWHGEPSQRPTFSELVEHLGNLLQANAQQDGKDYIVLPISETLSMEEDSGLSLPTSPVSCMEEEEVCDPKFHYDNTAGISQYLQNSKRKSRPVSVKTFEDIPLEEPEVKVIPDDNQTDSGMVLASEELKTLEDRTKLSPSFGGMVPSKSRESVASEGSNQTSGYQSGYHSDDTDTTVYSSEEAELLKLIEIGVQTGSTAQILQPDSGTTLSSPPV

[25] = molecular target: Cyclin-dependent kinase 11B (Homo sapiens) (UniProt P21127); conditions: Compound concentration 1000.0 nM
[26] = molecular target: Serine/threonine-protein kinase OSR1 (Homo sapiens) (UniProt O95747); conditions: Compound concentration 1000.0 nM
[27] = tested on: Mast/stem cell growth factor receptor Kit (Homo sapiens), P10721 [L576P]; conditions: Compound concentration 1000.0 nM
Chain of Mast/stem cell growth factor receptor Kit (Homo sapiens), P10721 [L576P] (P10721 whole entry L576P): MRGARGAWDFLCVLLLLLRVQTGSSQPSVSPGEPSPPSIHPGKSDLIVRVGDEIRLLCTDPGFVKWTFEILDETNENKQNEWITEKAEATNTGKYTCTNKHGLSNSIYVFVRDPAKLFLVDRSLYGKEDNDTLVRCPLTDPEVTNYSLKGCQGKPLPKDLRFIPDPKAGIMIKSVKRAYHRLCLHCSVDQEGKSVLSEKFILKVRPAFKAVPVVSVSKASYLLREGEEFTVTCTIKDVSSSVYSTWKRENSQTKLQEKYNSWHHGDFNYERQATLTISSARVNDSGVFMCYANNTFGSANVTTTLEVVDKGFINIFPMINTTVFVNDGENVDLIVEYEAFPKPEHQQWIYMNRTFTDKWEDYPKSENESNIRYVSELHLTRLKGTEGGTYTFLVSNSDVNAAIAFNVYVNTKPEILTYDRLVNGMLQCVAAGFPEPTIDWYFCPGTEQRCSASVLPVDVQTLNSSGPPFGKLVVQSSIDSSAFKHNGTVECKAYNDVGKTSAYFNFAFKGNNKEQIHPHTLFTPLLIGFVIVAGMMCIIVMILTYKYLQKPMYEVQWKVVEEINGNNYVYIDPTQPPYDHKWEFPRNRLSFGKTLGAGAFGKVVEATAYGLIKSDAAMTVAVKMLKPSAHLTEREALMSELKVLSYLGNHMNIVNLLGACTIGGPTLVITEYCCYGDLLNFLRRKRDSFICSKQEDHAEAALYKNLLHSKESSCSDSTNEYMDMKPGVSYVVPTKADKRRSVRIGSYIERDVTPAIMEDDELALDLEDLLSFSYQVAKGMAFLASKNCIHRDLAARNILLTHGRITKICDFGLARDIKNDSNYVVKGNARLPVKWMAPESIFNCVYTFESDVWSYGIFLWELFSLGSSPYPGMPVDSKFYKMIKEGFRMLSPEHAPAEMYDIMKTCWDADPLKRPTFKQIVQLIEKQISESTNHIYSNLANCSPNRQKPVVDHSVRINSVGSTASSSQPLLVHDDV

[28] = molecular target: Ephrin type-A receptor 6 (Homo sapiens) (UniProt Q9UF33); conditions: Compound concentration 1000.0 nM
[29] = molecular target: Serine/threonine-protein kinase Chk1 (Homo sapiens) (UniProt O14757); conditions: Compound concentration 1000.0 nM
[30] = molecular target: Tyrosine-protein kinase Mer (Homo sapiens) (UniProt Q12866); conditions: Compound concentration 1000.0 nM
[31] = molecular target: Serine/threonine-protein kinase Nek5 (Homo sapiens) (UniProt Q6P3R8); conditions: Compound concentration 1000.0 nM
[32] = molecular target: Mitogen-activated protein kinase kinase kinase 15 (Homo sapiens) (UniProt Q6ZN16); conditions: Compound concentration 1000.0 nM
[33] = tested on: Mast/stem cell growth factor receptor Kit (Homo sapiens), P10721 [A829P]; conditions: Compound concentration 1000.0 nM
[34] = molecular target: Histamine H4 receptor (Homo sapiens) (UniProt Q9H3N8); conditions: Compound concentration 10.0 uM
[35] = molecular target: Serine/threonine-protein kinase pim-1 (Homo sapiens) (UniProt P11309); conditions: Compound concentration 1000.0 nM
Chain of Serine/threonine-protein kinase pim-1 (Homo sapiens) (P11309 whole entry, looked up): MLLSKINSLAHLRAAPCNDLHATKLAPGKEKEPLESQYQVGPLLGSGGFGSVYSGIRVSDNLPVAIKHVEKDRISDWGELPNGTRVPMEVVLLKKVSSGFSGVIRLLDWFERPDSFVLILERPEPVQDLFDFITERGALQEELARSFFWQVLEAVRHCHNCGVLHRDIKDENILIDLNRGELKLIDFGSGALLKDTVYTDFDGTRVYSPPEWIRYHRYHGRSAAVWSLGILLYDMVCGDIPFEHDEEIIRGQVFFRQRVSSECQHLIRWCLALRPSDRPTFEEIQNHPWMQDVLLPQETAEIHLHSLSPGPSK

[36] = molecular target: Mitogen-activated protein kinase kinase kinase 3 (Homo sapiens) (UniProt Q99759); conditions: Compound concentration 1000.0 nM
[37] = tested on: Receptor-type tyrosine-protein kinase FLT3 (Homo sapiens), P36888 [UNDEFINED MUTATION]; conditions: Compound concentration 1000.0 nM
[38] = molecular target: Ephrin type-B receptor 4 (Homo sapiens) (UniProt P54760); conditions: Compound concentration 1000.0 nM
Chain of Ephrin type-B receptor 4 (Homo sapiens) (P54760 whole entry): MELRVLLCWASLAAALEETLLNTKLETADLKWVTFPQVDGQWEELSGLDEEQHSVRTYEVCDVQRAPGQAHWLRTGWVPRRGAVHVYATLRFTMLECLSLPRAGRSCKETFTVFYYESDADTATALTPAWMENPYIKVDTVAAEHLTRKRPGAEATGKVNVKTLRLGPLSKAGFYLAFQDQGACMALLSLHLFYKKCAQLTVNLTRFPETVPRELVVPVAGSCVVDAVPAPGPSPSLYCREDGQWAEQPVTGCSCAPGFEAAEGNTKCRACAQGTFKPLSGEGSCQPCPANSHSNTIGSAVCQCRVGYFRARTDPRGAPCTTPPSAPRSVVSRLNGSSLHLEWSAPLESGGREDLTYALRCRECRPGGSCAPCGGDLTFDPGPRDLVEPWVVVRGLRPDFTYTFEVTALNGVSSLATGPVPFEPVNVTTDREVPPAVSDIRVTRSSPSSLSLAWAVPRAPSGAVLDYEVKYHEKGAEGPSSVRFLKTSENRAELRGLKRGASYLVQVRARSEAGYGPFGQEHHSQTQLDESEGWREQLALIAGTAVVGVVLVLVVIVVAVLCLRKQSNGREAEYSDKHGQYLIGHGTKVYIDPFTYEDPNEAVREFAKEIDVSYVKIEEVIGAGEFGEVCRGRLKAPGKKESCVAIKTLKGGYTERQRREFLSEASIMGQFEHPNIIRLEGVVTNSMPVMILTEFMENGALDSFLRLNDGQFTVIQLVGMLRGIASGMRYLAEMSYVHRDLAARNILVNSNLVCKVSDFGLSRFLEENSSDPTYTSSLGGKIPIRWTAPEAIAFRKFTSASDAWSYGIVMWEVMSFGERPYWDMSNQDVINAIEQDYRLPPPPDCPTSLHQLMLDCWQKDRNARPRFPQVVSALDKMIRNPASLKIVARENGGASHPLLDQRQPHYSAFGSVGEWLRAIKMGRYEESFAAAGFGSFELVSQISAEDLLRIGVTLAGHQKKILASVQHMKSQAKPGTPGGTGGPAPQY

[39] = molecular target: Phosphatidylinositol 5-phosphate 4-kinase type-2 gamma (Homo sapiens) (UniProt Q8TBX8); conditions: Compound concentration 1000.0 nM
[40] = molecular target: Serine/threonine-protein kinase D1 (Homo sapiens) (UniProt Q15139); conditions: Compound concentration 1000.0 nM
[41] = molecular target: Casein kinase I isoform alpha (Homo sapiens) (UniProt P48729); conditions: Compound concentration 1000.0 nM
[42] = molecular target: Testis-specific serine/threonine-protein kinase 3 (Homo sapiens) (UniProt Q96PN8); conditions: Compound concentration 1000.0 nM
Chain of Testis-specific serine/threonine-protein kinase 3 (Homo sapiens) (Q96PN8 whole entry): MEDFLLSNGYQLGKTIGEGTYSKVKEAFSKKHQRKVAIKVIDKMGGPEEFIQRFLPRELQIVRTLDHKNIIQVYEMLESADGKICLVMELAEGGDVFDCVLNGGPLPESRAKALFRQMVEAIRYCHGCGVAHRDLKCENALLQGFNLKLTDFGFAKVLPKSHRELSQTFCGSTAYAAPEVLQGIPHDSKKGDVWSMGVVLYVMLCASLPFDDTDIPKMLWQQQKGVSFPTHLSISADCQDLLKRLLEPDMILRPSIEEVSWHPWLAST

[43] = molecular target: Focal adhesion kinase 1 (Homo sapiens) (UniProt Q05397); conditions: Compound concentration 1000.0 nM
[44] = molecular target: NUAK family SNF1-like kinase 1 (Homo sapiens) (UniProt O60285); conditions: Compound concentration 1000.0 nM
[45] = molecular target: Insulin receptor (Homo sapiens) (UniProt P06213); conditions: Compound concentration 1000.0 nM

O=C1NC(c2ccccn2)Sc2ccccc21 (stereo not given) [BTZO-4]
inactive: inhibition [1] 11.2% | residual activity [2] 100% | residual activity [3] 96% | residual activity [4] 100% | residual activity [5] 100% | residual activity [6] 100% | residual activity [7] 100% | residual activity [8] 81% | residual activity [9] 80% | residual activity [10] 80% | residual activity [11] 100% | inhibition [12] 7.77% | residual activity [13] 92% | residual activity [14] 88% | inhibition [15] 12.3% | residual activity [16] 100% | residual activity [17] 78% | residual activity [18] 89% | residual activity [19] 95% | residual activity [20] 100% | residual activity [21] 82% | inhibition [22] 8.1% | residual activity [23] 89% | residual activity [24] 82% | residual activity [25] 100% | residual activity [26] 100% | residual activity [27] 89% | residual activity [28] 79% | residual activity [29] 88% | residual activity [30] 75% | residual activity [31] 72% | residual activity [32] 85% | residual activity [33] 98% | inhibition [34] 1.89% | residual activity [35] 82% | residual activity [36] 93% | residual activity [37] 100% | residual activity [38] 100% | residual activity [39] 100% | residual activity [40] 100% | residual activity [41] 72% | residual activity [42] 88% | residual activity [43] 79% | residual activity [44] 95% | residual activity [45] 88%

O=c1nc(-c2ccccn2)sc2ccccc12 [BTZO-1]
inactive: inhibition [1] 21.5% | residual activity [2] 100% | residual activity [3] 100% | residual activity [4] 100% | residual activity [5] 100% | residual activity [6] 100% | residual activity [7] 100% | residual activity [8] 75% | residual activity [9] 85% | residual activity [10] 100% | residual activity [11] 100% | inhibition [12] 3.24% | residual activity [13] 84% | residual activity [14] 95% | inhibition [15] -1.9% | residual activity [16] 100% | residual activity [17] 100% | residual activity [18] 79% | residual activity [19] 90% | residual activity [20] 100% | residual activity [21] 71% | inhibition [22] 2% | residual activity [23] 100% | residual activity [24] 100% | residual activity [25] 100% | residual activity [26] 100% | residual activity [27] 86% | residual activity [28] 100% | residual activity [29] 85% | residual activity [30] 82% | residual activity [31] 78% | residual activity [32] 100% | residual activity [33] 100% | inhibition [34] -0.975% | residual activity [35] 85% | residual activity [36] 77% | residual activity [37] 100% | residual activity [38] 100% | residual activity [39] 98% | residual activity [40] 100% | residual activity [41] 76% | residual activity [42] 86% | residual activity [43] 90% | residual activity [44] 100% | residual activity [45] 100%
